We go through two molecules from patent publication US20210311024A1, “NON-CLINICAL TEST METHOD CHARACTERIZED BY QUANTITATIVE EVALUATION OF EXPERIMENTAL ANIMAL SPECIMEN” (Konica Minolta, Inc., priority 2016, published 2021).

Holding throughout (type): in vivo
The subject of experiment [1] is PDX mice each transplanted with the breast cancer tissue of one of six patients (A to F). As to the kind of experiment: Lapatinib drug efficacy in PDX mice selected for low CD140a score, Example 4. To be noted: three mice per group selected for low CD140a score; 100 mg/kg i.v. twice a day, 42 times; 21 days after first administration. As to the method: PDX mice each transplanted with the breast cancer tissue (volume: about 200 mm^3) of one of six patients (A to F), which were the same as those used in Example 1, were purchased, five mice for each of the patients. These PDX mice were reared, and the size of the tumor in each mouse was measured every 3 or 4 days. When the tumor volume reached 500 mm^3, tumor tissue was collected from each mouse using a scalpel.
The observation and image capture of the immunostained images and the stained images for morphological observation were carried out in the same manner as in Example 1, to measure the PID score or the DAB score of CD140a. […]
To each of the thus selected three PDX mice, in each group, 100 mg/kg of lapatinib (trade name: Tykerb) was administered intravenously twice a day, for a total of 42 times, in the same manner as in Example 1, and the tumor volume was measured before the first administration, and 21 days after the first administration. […] The collected tissue sections were used for the quantification of the expression level of HER2 protein as the target protein, in the same manner as in Example 1.

Experiment [2] shares this test system. As to the kind of experiment: Lapatinib drug efficacy (tumor volume) in breast cancer PDX mice, Example 1. To be noted: 100 mg/kg i.v. twice a day, 42 times; for Tumor size (size at the start of administration is taken as 100%): 21 days after first administration.
Protocol: To each of these PDX mice, 100 mg/kg of lapatinib (Trade name: Tykerb) was administered intravenously twice a day, for a total of 42 times. The measurement of the tumor volume was carried out before the administration and 21 days after the first administration. At the same time, a tissue section was collected from each mouse using a frozen needle, at each time point. The collected tissue sections were subjected to a formalin fixation treatment and a paraffin-embedding treatment, and then sliced to prepare sample slides, according to conventional methods. The thus prepared sample slides were used for the quantification of the expression level of HER2 as the target protein.
Experiment [3] concerns hemato-lymphoid humanized model mice transplanted with tumor tissue of lung cancer patients. As to the kind of experiment: Nivolumab drug efficacy in hemato-lymphoid humanized model mice transplanted with lung cancer tissue, Example 5. To be noted: 100 mg/kg i.v. twice a day, 42 times; 21 days after first administration. The text has this: Hemato-lymphoid humanized mice, produced by transplanting human hematopoietic stem cells into mice with acquired immune deficiency, were transplanted with tumor tissue, to prepare hemato-lymphoid humanized model mice, which are one type of patient-derived tumor-transplanted mice. Tumor tissues collected from six lung cancer patients were purchased from SofiaBio, and the thus produced hemato-lymphoid humanized mice were each subcutaneously transplanted with the tumor tissue, having a size of 2 mm square, of one of the patients (five mice transplanted with the tumor tissue of one patient were produced for each of the patients). To each of the model mice whose tumor tissue had grown to the size of about 300 mm^3 one month after the transplantation, 100 mg/kg of an anti-human PD-1 monoclonal antibody preparation, nivolumab (trade name: Opdivo) was administered intravenously twice a day, for a total of 42 times. In the same manner as in Example 1, the tumor volume was measured before the first administration and 21 days after the first administration. At the same time, a tissue section was collected from each of the mice, and sample slides were prepared in the same manner as in Example 1. […]

In the case of `CS(=O)(=O)CCNCc1ccc(-c2ccc3ncnc(Nc4ccc(OCc5cccc(F)c5)c(Cl)c4)c3c2)o1` [Lapatinib, lapatinib], the “drug efficacy (effect of reducing the tumor size) in relation to PID score of HER2 protein” value in experiment [1] is “increased drug efficacy (effect of reducing the tumor size) of lapatinib tend to be observed in a PDX mouse having a higher PID score of HER2 protein”. Also, the “Tumor size (size at the start of administration is taken as 100%)” value was determined as 180% in experiment [2] (Sample A (PID score 10, DAB score — before administration)); 120% in experiment [2] (Sample B (PID score 30, DAB score 1+ before administration)); 80% in experiment [2] (Sample C (PID score 100, DAB score 2+ before administration)); 70% in experiment [2] (Sample D (PID score 200, DAB score 3+ before administration)); 60% in experiment [2] (Sample E (PID score 400, DAB score 3+ before administration)); 10% in experiment [2] (Sample F (PID score 800, DAB score 3+ before administration)). The “drug efficacy (effect of reducing the tumor size) in relation to PID score” value in experiment [2] (among the PDX mice having the same DAB score of 3+) is “increased drug efficacy (effect of reducing the tumor size) of lapatinib tend to be observed in a PDX mouse having a higher PID score”.

In the case of nivolumab, in experiment [3], the “drug efficacy (effect of reducing the tumor size) in relation to PID score of PD-L1 protein” value was “increased drug efficacy (effect of reducing the tumor size) of nivolumab tend to be observed in a PDX mouse having a higher PID score of PD-L1 protein”.
